The source of these data is PubChem BioAssay (NCI).

Structures are written as SMILES. Values joined by “and” are separate entries in the source; they are usually repeats but may differ in a detail not shown here. Equal values may be shown once.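 Assay format: 96-well plates, 48-hour exposure. Here, GI50 denotes the concentration required for 50% inhibition of growth. TGI marks complete inhibition of growth.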 Where only a bound is given, the exact number is not on record here.

Test systems include BT-549 breast; DU-145 prostate; HCC-2998 colon; K-562 leukemia; MCF7 breast; OVCAR-4 ovarian; SF-539 CNS; SK-MEL-2 melanoma; SK-MEL-28 melanoma; SNB-75 CNS.
What all share (assay): inhibition of tumour cell growth, NCI panel, 48 h

As for `O=C(/C=C/c1cccc(S(=O)(=O)Nc2ccccc2)c1)NO`, the GI50 in the assay with BT-549 breast is 3.53 µM and 2.16 µM; in the assay on DU-145 prostate it was 444 nM and 111 nM; with HCC-2998 colon it was 519 nM and 258 nM; in the assay with K-562 leukemia, 325 nM and 59.3 nM; in the assay on MCF7 breast it was 384 nM and 157 nM; in the assay with OVCAR-4 ovarian, 1980 nM and 1080 nM. For the same compound, the GI50 was 696 nM and 130 nM in the assay on SF-539 CNS; 2.34 µM and 5.73 µM with SK-MEL-2 melanoma; 1000 nM and 1550 nM with SK-MEL-28 melanoma. The TGI is 44.5 µM and 71.9 µM in the assay with BT-549 breast; 17.8 µM with DU-145 prostate; 2.48 µM and 1.91 µM in the assay with HCC-2998 colon; above 100 µM with K-562 leukemia; > 100 µM and 10.4 µM with MCF7 breast; above 100 µM with OVCAR-4 ovarian. Moreover, the TGI was 20.9 µM and 23.9 µM with SF-539 CNS; 15.6 µM and > 71.2 µM with SK-MEL-2 melanoma; 10.3 µM and 51.8 µM with SK-MEL-28 melanoma; 58.1 µM and > 54 µM with SNB-75 CNS.

`O=[N+]([O-])/C=C/c1cc2ccc3ccccc3c2[nH]1`: the TGI was 4.44 µM with BT-549 breast; 3.9 µM in the assay with DU-145 prostate; 3.5 µM in the assay with HCC-2998 colon; 18.2 µM with K-562 leukemia; 4.29 µM with MCF7 breast; 4.95 µM with OVCAR-4 ovarian. In addition, the TGI in the assay with SF-539 CNS was 4.99 µM; in the assay on SK-MEL-2 melanoma, 2.39 µM; in the assay with SK-MEL-28 melanoma, 4.79 µM; in the assay with SNB-75 CNS it was 3.87 µM.

`Cc1cc(=O)oc2cc(OC(=O)Nc3ccccc3)ccc12`: the TGI in the assay on BT-549 breast, in the assay with DU-145 prostate, in the assay on HCC-2998 colon, in the assay on K-562 leukemia, with MCF7 breast and with OVCAR-4 ovarian was above 100 µM each time. The TGI with SF-539 CNS, in the assay with SK-MEL-2 melanoma, in the assay with SK-MEL-28 melanoma and with SNB-75 CNS was above 100 µM each time.

Take `O=Cc1ccc(-c2ccc(-c3ccc(C=O)o3)[se]2)o1`: the GI50 is above 100 µM in the assay with BT-549 breast; above 100000 nM with DU-145 prostate; above 100000 nM with HCC-2998 colon; above 100000 nM in the assay on K-562 leukemia; 6350 nM with MCF7 breast; above 100000 nM in the assay on OVCAR-4 ovarian. For the same compound, the GI50 is above 100000 nM in the assay on SF-539 CNS, above 100 µM with SK-MEL-2 melanoma, above 100000 nM with SK-MEL-28 melanoma and 29.6 µM in the assay on SNB-75 CNS. Also, the TGI in the assay with BT-549 breast, with DU-145 prostate, with HCC-2998 colon, in the assay on K-562 leukemia, in the assay with MCF7 breast and with OVCAR-4 ovarian was above 100 µM throughout. Besides, the TGI with SF-539 CNS, with SK-MEL-2 melanoma, with SK-MEL-28 melanoma and in the assay on SNB-75 CNS was above 100 µM throughout.

Take `C/C(=N\O)c1cccc(Nc2cc(-c3ccccc3)nc3c(O)cccc23)c1`: the GI50 is 11.8 µM with BT-549 breast; 2960 nM in the assay with DU-145 prostate; 3680 nM in the assay with HCC-2998 colon; 581 nM with K-562 leukemia; 354 nM in the assay on MCF7 breast; 8190 nM in the assay on OVCAR-4 ovarian. Besides, the GI50 with SF-539 CNS is 2200 nM; in the assay on SK-MEL-2 melanoma it was 8.34 µM; in the assay with SK-MEL-28 melanoma, 10900 nM; in the assay on SNB-75 CNS it was 3.21 µM. Moreover, the TGI with BT-549 breast is 52.3 µM; in the assay on DU-145 prostate, 16.6 µM; in the assay with HCC-2998 colon, 14.2 µM; with K-562 leukemia it was above 53.5 µM; in the assay on MCF7 breast, 46.5 µM; in the assay on OVCAR-4 ovarian, 37.4 µM. Also, the TGI was 9.85 µM in the assay with SF-539 CNS, 27.2 µM with SK-MEL-2 melanoma, 27.8 µM in the assay with SK-MEL-28 melanoma and 28.4 µM in the assay with SNB-75 CNS.
